Test system: MV-4-11 cells
Assay: Gene expression microarray analysis (Affymetrix PrimeView) and GSEA
Assay type: cell-based, human
Set-up: RFU PODN (11730768_x_at) / Fold change /veh PODN (11730768_x_at) / RFU LINC00158 (11744669_a_at) / Fold change /veh LINC00158 (11744669_a_at) / RFU DUSP10 (11751237_a_at) / Fold change /veh DUSP10 (11751237_a_at) / RFU ID3 (11757404_x_at) / Fold change /veh ID3 (11757404_x_at) / RFU PLEKHG5 (11737974_s_at) / Fold change /veh PLEKHG5 (11737974_s_at) / RFU LRRC4B (11730491_at) / Fold change /veh LRRC4B (11730491_at) / RFU GIMAP4 (11747438_a_at) / Fold change /veh GIMAP4 (11747438_a_at) / RFU KRT8 (11758183_x_at) / Fold change /veh KRT8 (11758183_x_at) / RFU CNN1 (11734310_a_at) / Fold change /veh CNN1 (11734310_a_at) / RFU VPS37D (11726825_at) / Fold change /veh VPS37D (11726825_at) / RFU C10orf10 (11716522_x_at) / Fold change /veh C10orf10 (11716522_x_at) / RFU KIR2DL2 /// KIR2DL4 /// KIR2DL5A /// KIR2DL5B /// KIR2DS1 /// KIR2DS2 /// KIR2DS3 /// KIR2DS4 /// KIR3DL3 /// KIR3DL3 /// KIR3DS1 (11738374_at) / Fold change /veh KIR2DL2 /// KIR2DL4 /// KIR2DL5A /// KIR2DL5B /// KIR2DS1 /// KIR2DS2 /// KIR2DS3 /// KIR2DS4 /// KIR3DL3 /// KIR3DL3 /// KIR3DS1 (11738374_at) / RFU C1QL1 (11718748_at) / Fold change /veh C1QL1 (11718748_at) / RFU TMPRSS4 (11747572_a_at) / Fold change /veh TMPRSS4 (11747572_a_at) / RFU HAMP (11756126_x_at) / Fold change /veh HAMP (11756126_x_at) / RFU RNFT2 (11725882_a_at) / Fold change /veh RNFT2 (11725882_a_at) / RFU NR4A2 (11747474_a_at) / Fold change /veh NR4A2 (11747474_a_at) / RFU ABCC12 (11746883_a_at) / Fold change /veh ABCC12 (11746883_a_at) / RFU TMEM136 (11760407_x_at) / Fold change /veh TMEM136 (11760407_x_at) / RFU CLDN22 /// WWC2 (11732394_at) / Fold change /veh CLDN22 /// WWC2 (11732394_at) / RFU HLA-DPB1 (11760878_x_at) / Fold change /veh HLA-DPB1 (11760878_x_at) / RFU SPINT1 (11716480_a_at) / Fold change /veh SPINT1 (11716480_a_at) / RFU GAP43 (11754022_s_at) / Fold change /veh GAP43 (11754022_s_at) / RFU A4GNT (11735810_at) / Fold change /veh A4GNT (11735810_at) / RFU PRB3 (11715151_x_at) / Fold change /veh PRB3 (11715151_x_at) / RFU TUBB4B (11761932_at) / Fold change /veh TUBB4B (11761932_at) / RFU CAPN14 (11732068_a_at) / Fold change /veh CAPN14 (11732068_a_at) / RFU TMCC2 (11721928_a_at) / Fold change /veh TMCC2 (11721928_a_at) / RFU IRGQ (11745062_a_at) / Fold change /veh IRGQ (11745062_a_at) / RFU FAM174B (11720279_a_at) / Fold change /veh FAM174B (11720279_a_at) / RFU TMPRSS4 (11748680_a_at) / Fold change /veh TMPRSS4 (11748680_a_at) / RFU FAM212B (11763350_a_at) / Fold change /veh FAM212B (11763350_a_at) / RFU PLEKHG5 (11743358_a_at) / Fold change /veh PLEKHG5 (11743358_a_at) / RFU ZSCAN30 (11745921_a_at) / Fold change /veh ZSCAN30 (11745921_a_at) / RFU CMKLR1 (11741424_a_at) / Fold change /veh CMKLR1 (11741424_a_at) / RFU LOC101060620 /// MAPK8IP1 (11723275_at) / Fold change /veh LOC101060620 /// MAPK8IP1 (11723275_at) / RFU SPTSSB (11747773_x_at) / Fold change /veh SPTSSB (11747773_x_at) / RFU PRSS12 (11739890_at) / Fold change /veh PRSS12 (11739890_at) / RFU BIN1 (11741810_x_at) / Fold change /veh BIN1 (11741810_x_at) / RFU WNT11 (11732464_a_at) / Fold change /veh WNT11 (11732464_a_at) / RFU C10orf10 (11716521_a_at) / Fold change /veh C10orf10 (11716521_a_at) / RFU C5orf56 (11738089_at) / Fold change /veh C5orf56 (11738089_at) / RFU CYB561 (11721691_x_at) / Fold change /veh CYB561 (11721691_x_at) / RFU ANKRD19P (11752326_a_at) / Fold change /veh ANKRD19P (11752326_a_at) / RFU OR2T12 /// OR2T33 /// OR2T8 (11738714_s_at) / Fold change /veh OR2T12 /// OR2T33 /// OR2T8 (11738714_s_at) / RFU VCAN (11748164_a_at) / Fold change /veh VCAN (11748164_a_at) / RFU JSRP1 (11732532_at) / Fold change /veh JSRP1 (11732532_at) / RFU KRTAP10-11 (11738290_x_at) / Fold change /veh KRTAP10-11 (11738290_x_at) / RFU MYO3A (11730013_a_at) / Fold change /veh MYO3A (11730013_a_at) / RFU EBF3 (11725865_a_at) / Fold change /veh EBF3 (11725865_a_at) / RFU CAMK2N1 (11719241_x_at) / Fold change /veh CAMK2N1 (11719241_x_at) / RFU C5orf56 (11738088_a_at) / Fold change /veh C5orf56 (11738088_a_at) / RFU OLFML3 (11715873_a_at) / Fold change /veh OLFML3 (11715873_a_at) / RFU LOC100653217 /// NTM (11731650_a_at) / Fold change /veh LOC100653217 /// NTM (11731650_a_at) / RFU MAPK11 (11762145_a_at) / Fold change /veh MAPK11 (11762145_a_at) / RFU FIZ1 (11724087_x_at) / Fold change /veh FIZ1 (11724087_x_at) / RFU OASL (11726364_x_at) / Fold change /veh OASL (11726364_x_at) / RFU SOX15 (11748057_x_at) / Fold change /veh SOX15 (11748057_x_at) / RFU CD79A (11719716_a_at) / Fold change /veh CD79A (11719716_a_at) / RFU HIST1H1D (11736915_at) / Fold change /veh HIST1H1D (11736915_at) / RFU CASKIN2 (11723855_a_at) / Fold change /veh CASKIN2 (11723855_a_at) / RFU LOC730098 (11760151_x_at) / Fold change /veh LOC730098 (11760151_x_at) / RFU OR4N2 (11742367_at) / Fold change /veh OR4N2 (11742367_at) / RFU PRRT2 (11749266_a_at) / Fold change /veh PRRT2 (11749266_a_at) / RFU SNX32 (11753110_a_at) / Fold change /veh SNX32 (11753110_a_at) / RFU CDHR5 (11726645_a_at) / Fold change /veh CDHR5 (11726645_a_at) / RFU RCAN1 (11760418_a_at) / Fold change /veh RCAN1 (11760418_a_at) / RFU FAM167A (11723789_a_at) / Fold change /veh FAM167A (11723789_a_at) / RFU FAM26E (11764081_at) / Fold change /veh FAM26E (11764081_at) / RFU ISYNA1 (11749810_s_at) / Fold change /veh ISYNA1 (11749810_s_at) / RFU ACY1 (11761880_at) / Fold change /veh ACY1 (11761880_at) / RFU 11764098_at / Fold change /veh 11764098_at / RFU SAMD14 (11745864_x_at) / Fold change /veh SAMD14 (11745864_x_at) / RFU NPB (11741838_a_at) / Fold change /veh NPB (11741838_a_at) / RFU TMPRSS6 (11731388_a_at) / Fold change /veh TMPRSS6 (11731388_a_at) / RFU KRTAP10-2 (11738614_at) / Fold change /veh KRTAP10-2 (11738614_at) / RFU ARHGAP8 /// PRR5-ARHGAP8 (11727945_x_at) / Fold change /veh ARHGAP8 /// PRR5-ARHGAP8 (11727945_x_at) / RFU KRTAP5-7 /// NADSYN1 (11734609_at) / Fold change /veh KRTAP5-7 /// NADSYN1 (11734609_at) / RFU RASL12 (11751679_a_at) / Fold change /veh RASL12 (11751679_a_at) / RFU CDKN2B (11736163_a_at) / Fold change /veh CDKN2B (11736163_a_at) / RFU PRF1 (11729649_at) / Fold change /veh PRF1 (11729649_at) / RFU, ZNF638 /// ZNF638-IT1 / Fold change vs veh, ZNF638 /// ZNF638-IT1 / RFU, PANK3 / Fold change vs veh, PANK3 / RFU, SH3YL1 / Fold change vs veh, SH3YL1 / RFU, ZEB2 / Fold change vs veh, ZEB2 / RFU, NRIP1 / Fold change vs veh, NRIP1 / RFU, PTTG1IP / Fold change vs veh, PTTG1IP / RFU, CAPN2 / Fold change vs veh, CAPN2 / RFU, MED14 / Fold change vs veh, MED14 / RFU, SNORA58 / Fold change vs veh, SNORA58 / RFU, C1orf63 / Fold change vs veh, C1orf63 / RFU, LRRFIP1 / Fold change vs veh, LRRFIP1 / RFU, NDUFAF7 / Fold change vs veh, NDUFAF7 / RFU, SLC12A2 / Fold change vs veh, SLC12A2 / RFU, IBTK / Fold change vs veh, IBTK / RFU, ESF1 / Fold change vs veh, ESF1 / Fold change vs veh, TMEM50B / RFU, TAOK1 / Fold change vs veh, TAOK1 / RFU, ACBD3 / Fold change vs veh, ACBD3 / RFU, TMA16 / Fold change vs veh, TMA16 / RFU, RWDD3 / Fold change vs veh, RWDD3 / RFU, BCAT1 / Fold change vs veh, BCAT1 / RFU, EDEM3 / Fold change vs veh, EDEM3 / RFU, TMEM33 / Fold change vs veh, TMEM33 / RFU, WDR75 / Fold change vs veh, WDR75 / RFU, AHCTF1 / Fold change vs veh, AHCTF1 / RFU, TFRC / Fold change vs veh, TFRC / RFU, ZDHHC17 / Fold change vs veh, ZDHHC17 / RFU, NOM1 / Fold change vs veh, NOM1 / RFU, ARL8B / Fold change vs veh, ARL8B / RFU, ZBTB11 / Fold change vs veh, ZBTB11 / RFU, TAMM41 / Fold change vs veh, TAMM41 / RFU, KIAA1704 /// LOC100996395 / Fold change vs veh, KIAA1704 /// LOC100996395 / RFU, ING1 / Fold change vs veh, ING1 / RFU, TRMT61B / Fold change vs veh, TRMT61B / RFU, FUBP3 / Fold change vs veh, FUBP3 / RFU, TP53 / Fold change vs veh, TP53 / RFU, TNKS2 / Fold change vs veh, TNKS2 / RFU, ZFP14 / Fold change vs veh, ZFP14 / RFU, ACTR2 / Fold change vs veh, ACTR2 / RFU, PPP3R1 / Fold change vs veh, PPP3R1 / RFU, PIK3R1 / Fold change vs veh, PIK3R1 / RFU, HNRNPA1 / Fold change vs veh, HNRNPA1 / RFU, RNF170 / Fold change vs veh, RNF170 / RFU, ZNF28 / Fold change vs veh, ZNF28 / RFU, RNGTT / Fold change vs veh, RNGTT / RFU, OGT / Fold change vs veh, OGT / RFU, BRD1 / Fold change vs veh, BRD1 / RFU, MARS / Fold change vs veh, MARS / RFU, ZNF655 / Fold change vs veh, ZNF655 / RFU, FAHD1 / Fold change vs veh, FAHD1 / RFU, BDP1 / Fold change vs veh, BDP1 / RFU, LRRCC1 / Fold change vs veh, LRRCC1 / RFU, ARID1A / Fold change vs veh, ARID1A / RFU, ZNF146 / Fold change vs veh, ZNF146 / RFU, ZNF330 / Fold change vs veh, ZNF330 / RFU, GPN3 / Fold change vs veh, GPN3 / RFU, C9orf123 / Fold change vs veh, C9orf123 / RFU, N4BP2L2 / Fold change vs veh, N4BP2L2 / RFU, ARFIP1 / Fold change vs veh, ARFIP1 / RFU, FAM179B / Fold change vs veh, FAM179B / RFU, BCL10 / Fold change vs veh, BCL10 / RFU, UHRF1BP1L / Fold change vs veh, UHRF1BP1L / RFU, BET1 / Fold change vs veh, BET1 / RFU, CNOT2 / Fold change vs veh, CNOT2 / RFU, ZNF268 / Fold change vs veh, ZNF268 / Fold change vs veh, ZNF507 / RFU, DGCR2 / Fold change vs veh, DGCR2 / RFU, WDSUB1 / Fold change vs veh, WDSUB1 / Fold change vs veh, HSP90B1 /// MIR3652 / RFU, ADSS / Fold change vs veh, ADSS / RFU, GK / Fold change vs veh, GK / RFU, ZNF148 / Fold change vs veh, ZNF148 / RFU, TAF9 / Fold change vs veh, TAF9 / RFU, SLC1A5 / Fold change vs veh, SLC1A5 / RFU, SLMO2 / Fold change vs veh, SLMO2 / RFU, ABCC4 / Fold change vs veh, ABCC4 / RFU, LOC101060439 /// RAP1B / Fold change vs veh, LOC101060439 /// RAP1B / RFU, RFX7 / Fold change vs veh, RFX7 / RFU, GTPBP10 / Fold change vs veh, GTPBP10 / RFU, CNEP1R1 / Fold change vs veh, CNEP1R1 / RFU, BIVM-ERCC5 /// ERCC5 / Fold change vs veh, BIVM-ERCC5 /// ERCC5 / RFU, ILF3 / Fold change vs veh, ILF3 / RFU 11762660_at / Fold change /veh 11762660_at / RFU VCAN (11757783_s_at) / Fold change /veh VCAN (11757783_s_at) / RFU DDX43 (11728927_at) / Fold change /veh DDX43 (11728927_at) / RFU KRT8 (11758188_x_at) / Fold change /veh KRT8 (11758188_x_at) / RFU NKD1 (11759106_at) / Fold change /veh NKD1 (11759106_at) / RFU SRD5A1 (11742802_a_at) / Fold change /veh SRD5A1 (11742802_a_at) / RFU TPSAB1 /// TPSB2 (11721975_s_at) / Fold change /veh TPSAB1 /// TPSB2 (11721975_s_at) / RFU GSTM3 (11746129_a_at) / Fold change /veh GSTM3 (11746129_a_at) / RFU IL23R (11737362_x_at) / Fold change /veh IL23R (11737362_x_at) / RFU TMEM51 (11727254_a_at) / Fold change /veh TMEM51 (11727254_a_at) / RFU PIWIL2 (11732686_x_at) / Fold change /veh PIWIL2 (11732686_x_at) / RFU ORM1 (11744905_x_at) / Fold change /veh ORM1 (11744905_x_at) / RFU CCDC152 (11743942_at) / Fold change /veh CCDC152 (11743942_at) / RFU ECM1 (11717891_a_at) / Fold change /veh ECM1 (11717891_a_at) / RFU IL23R (11748794_a_at) / Fold change /veh IL23R (11748794_a_at) / RFU TNFAIP8L3 (11732012_x_at) / Fold change /veh TNFAIP8L3 (11732012_x_at) / RFU MBOAT4 (11741988_at) / Fold change /veh MBOAT4 (11741988_at) / RFU 11764193_at / Fold change /veh 11764193_at / RFU TMEM53 (11763286_at) / Fold change /veh TMEM53 (11763286_at) / RFU MAGEB2 (11727129_at) / Fold change /veh MAGEB2 (11727129_at) / RFU TMEM200A (11744735_a_at) / Fold change /veh TMEM200A (11744735_a_at) / RFU CCDC152 (11751479_a_at) / Fold change /veh CCDC152 (11751479_a_at) / RFU FAM211A (11726209_a_at) / Fold change /veh FAM211A (11726209_a_at) / RFU RGS16 (11746705_a_at) / Fold change /veh RGS16 (11746705_a_at) / RFU VCAN (11755009_s_at) / Fold change /veh VCAN (11755009_s_at) / RFU RHOB (11743442_s_at) / Fold change /veh RHOB (11743442_s_at) / RFU RGS16 (11720943_a_at) / Fold change /veh RGS16 (11720943_a_at) / RFU RGS16 (11720944_at) / Fold change /veh RGS16 (11720944_at) / RFU, VPS4B / Fold change vs veh, VPS4B / RFU, CREB1 / Fold change vs veh, CREB1 / RFU, DNAJC13 / Fold change vs veh, DNAJC13 / RFU, GNAQ / Fold change vs veh, GNAQ / RFU, CDK5R1 / Fold change vs veh, CDK5R1 / RFU, ZRANB3 / Fold change vs veh, ZRANB3 / RFU, CUL4A / Fold change vs veh, CUL4A / RFU, CCNY / Fold change vs veh, CCNY / RFU, UFL1 / Fold change vs veh, UFL1 / RFU, COG3 / Fold change vs veh, COG3 / RFU, DIAPH2 / Fold change vs veh, DIAPH2 / RFU, SKA2 / Fold change vs veh, SKA2 / RFU, AFF3 / Fold change vs veh, AFF3 / RFU, LMF1 / Fold change vs veh, LMF1 / RFU, IPO11 / Fold change vs veh, IPO11 / RFU, DFFB / Fold change vs veh, DFFB / RFU, FOXP1 / Fold change vs veh, FOXP1 / RFU, CARD8 / Fold change vs veh, CARD8 / RFU, STRN3 / Fold change vs veh, STRN3 / RFU, ADK / Fold change vs veh, ADK / RFU, RASSF2 / Fold change vs veh, RASSF2 / RFU, WIPF1 / Fold change vs veh, WIPF1 / RFU, LARP1B / Fold change vs veh, LARP1B / RFU, RASA1 / Fold change vs veh, RASA1 / RFU, RB1 / Fold change vs veh, RB1 / RFU, PPFIA1 / Fold change vs veh, PPFIA1 / RFU, MAT2A / Fold change vs veh, MAT2A / RFU, CCT5 / Fold change vs veh, CCT5 / RFU, WDR92 / Fold change vs veh, WDR92 / RFU, CUX1 / Fold change vs veh, CUX1 / RFU, TTC7A / Fold change vs veh, TTC7A / RFU, TMEM135 / Fold change vs veh, TMEM135 / RFU, DEPTOR / Fold change vs veh, DEPTOR / RFU, CPM / Fold change vs veh, CPM / RFU, DNAJB6 / Fold change vs veh, DNAJB6 / RFU, CACNA2D3 / Fold change vs veh, CACNA2D3 / RFU, DTX4 / Fold change vs veh, DTX4 / RFU, TFCP2 / Fold change vs veh, TFCP2 / RFU, GMCL1 /// GMCL1P1 / Fold change vs veh, GMCL1 /// GMCL1P1 / RFU, AEBP2 / Fold change vs veh, AEBP2 / RFU, SNHG1 /// SNORD22 /// SNORD25 /// SNORD26 /// SNORD27 /// SNORD28 /// SNORD29 /// SNORD31 / Fold change vs veh, SNHG1 /// SNORD22 /// SNORD25 /// SNORD26 /// SNORD27 /// SNORD28 /// SNORD29 /// SNORD31 / Fold change (Aza/veh), C12orf56 (ProbeSet 11735607_a_at) / Fold change (ACY-1035/veh), C12orf56 (ProbeSet 11735607_a_at) / Fold change (Aza/veh), FGFR1OP (ProbeSet 11751329_s_at) / Fold change (ACY-1035/veh), FGFR1OP (ProbeSet 11751329_s_at) / Fold change (Aza/veh), VPS36 (ProbeSet 11739960_a_at) / Fold change (ACY-1035/veh), VPS36 (ProbeSet 11739960_a_at) / RFU SYPL1 (11715823_x_at) / Fold change /veh SYPL1 (11715823_x_at) / RFU IGFBP7 (11715501_s_at) / Fold change /veh IGFBP7 (11715501_s_at) / RFU REEP3 (11722064_at) / Fold change /veh REEP3 (11722064_at) / RFU IGLL1 (11728026_x_at) / Fold change /veh IGLL1 (11728026_x_at): dose or concentration left out as unconfirmed
Conditions: MV-4-11 cells, 48 hours

Nc1ccc(-c2cccs2)cc1NC(=O)c1ccc2c(c1)cc(C1CC1)n2CCN1CCOCC1 [ACY-1035]
Fold change /veh MAGEB2 (11727129_at): 0.99

— publication PMC5218480 (PLoS ONE, 2017)
